According to patent publication US7759291B2, “Pyrazole compounds and use thereof” (Sumitomo Chemical Company, Limited, priority 2004, dated 2010):

Experiments:
Tetranychus urticae = experiment: Test Example 1: spray test against Tetranychus urticae on brush bean, Controlling Rate; assay type: in vivo; details: 200 ppm, 30 ml sprayed over brush bean (Phaseolus vulgaris) with female adults
Method: The formulation obtained according to Formulation Example 1 using the present invention compounds (1) to (30) and the comparative compound (a) described below respectively, was diluted with water so that the concentration of the present invention compound or the comparative compound came to 200 ppm. About twenty female adults of Tetranychus urticae were set free on brush bean (Phaseolus vulgaris) in the primary leaf stage, which had been potted in a plastic cup for 7 days after the seeding. After 1 day, a 30 ml of the diluted formulation described-above was sprayed over the plant. On the 8th and 13th day after the application, the numbers of lived Tetranychus urticae on the leaf of brush bean plant were examined, and the Controlling Rates were calculated by the following scheme. Controlling Rate=100×{1−(a number of lived Tetranychus urticae in the treatment)/(a number of lived Tetranychus urticae in the non-treatment)}

[1] = test system: Adoxophyes orana fasciata; experiment: Test Example 2: spray test on apple seedling against first-instar larvae of Adoxophyes orana fasciata, rate of dead pests; assay type: in vivo; details: 200 ppm, 30 ml sprayed over apple seedling, 7th day after application
Method: The formulation obtained according to Formulation Example 1 using the present invention compound (25): [drawing 138] and the comparative compound (b) described below respectively, was diluted with water so that the concentration of the present invention compound or the comparative compound came to 200 ppm. 30 ml of the diluted formulation described above was sprayed over the seedling of apple, which had been potted in plastic cup for 28 days after seeding about 15 cm height. After the sprayed solution was dried, about sixty first-instar larvae of Adoxophyes orana fasciata were set free on the apple seedling. On the 7 th day after application, the number of surviving or dyed Adoxophyes orana fasciata on the apple seedling was examined, and the rate of dead pests was calculated.

Row | Compound | Controlling Rate (Tetranychus urticae; 8th day after the application) | Controlling Rate (Tetranychus urticae; 13th day after the application) | rate of dead pests [1]
1 | Cc1nn(C)c(Oc2ccc(Oc3ccc(C(F)(F)F)cc3)cc2)c1C=NOCc1ccccc1 [comparative compound (a)] | less than 30% | less than 30% | 
2 | Cc1nn(C)c(Oc2ccc(Oc3ccc(C(F)(F)F)cc3)cc2)c1C=O [comparative compound (b)] |  |  | less than 80%
3 | C=CCOc1ccc(Oc2ccc(Oc3c(C)c(C)nn3C)cc2)cc1 [present invention compound (25)] |  |  | ≥ 90%
